Measured values taken from US20100136137A1, “THERAPEUTIC COMBINATION OF A PANHER/VEGFR2 KINASE INHIBITOR AND A PLATINUM COMPOUND” (Bristol-Meyers Squibb Company, priority 2006, published 2010).

Columns and labels:
Format in all cases: cell-based
A549 cells = test: siRNA knockdown of apoptosis pathway components in A549 cells, Compound I induced cell death
Method: (§1) Non-Small Cell Lung Cancer cell lines with different EGFR and p53 mutation status were used. Variable doses of Compound I or cisplatin were used to induce death or proliferative death of the cells. A549 cells were transfected with siRNAs, and transfected cells were cultured for 48 hours prior to the administration of the drugs to attain the maximal down-regulation of the target proteins.

NSCLC cell lines [1] = test: Anti-proliferative/pro-apoptotic effects in NSCLC cell lines with different EGFR and p53 mutation status
Method: as §1

NSCLC cell lines [2] = test: Apoptosis-associated changes by DiOC63 (Δψm) and propidium iodide (viability) staining
Description: The fluorochromes, 3,3′-dihexyloxacarbocyanine iodide (DiOC63) and propidium iodide (PI) were employed to determine different apoptosis-associated changes. DiOC63 was used for the loss of mitochondrial transmembrane potential (Δψm) and PI was used for the loss of viability.

`COc1cccc(Nc2ncnn3ccc(CN4CC[C@@H](N)[C@H](O)C4)c23)c1` [Compound I, 4-Amino-1-[[4-[(3-methoxyphenyl)amino]pyrrolo [2,1-f][1,2,4]triazin-5-yl]methyl]-(3R,4R)-3-piperidinol] was tested, and the “effect of caspase-2 down-regulation on Compound I induced cell-death” value (A549 cells; 24 and 48 hours) was “limited protection against Compound I induced cell-death at 24 hours, but not at 48 hours”, the “effect of Bcl-2 down-regulation, alone or in combination with Bcl-XL, on the effect of Compound I” value (A549 cells; both 24 and 48 hours) was “strongly sensitized A549 cells” and the “order of sensitivity of cell lines” value (NSCLC cell lines [1]; NCI-H1975, NCI-H1650, NCIH1299, A549) was “NCI-H1975>>NCI-H1650=NCIH1299>A549”. The anti-proliferative/pro-apoptotic effects (NSCLC cell lines [1]; all NSCLC cell lines tested, including wild-type EGFR and T790M mutant) was “induced anti-proliferative/pro-apoptotic effects in all NSCLC cell lines tested”, the “dissipation of Δψm (marker of early apoptosis)” value (NSCLC cell lines [2]; DiOC63 staining) was “induced dissipation of Δψm” and the “incorporation of PI (marker of late apoptosis, loss of viability)” value (NSCLC cell lines [2]; propidium iodide staining) was “incorporation of PI”. For the same compound, the “effect of pan-caspase inhibitor z-VAD.fmk on the loss of viability” value (NSCLC cell lines [2]; with z-VAD.fmk) was “no effect” and the “effect of pan-caspase inhibitor z-VAD.fmk on the reduction of the Δψm” value (NSCLC cell lines [2]; with z-VAD.fmk) was “only a minor protective effect”.
